Among the data in BindingDB's records for doi:10.1021/jm100394y (Amgen, 2010) are EC50 values, retold here.

The nature of the experiment: Inhibition of aurora B in human HeLa cells assessed as increase of >= 4N DNA level after 24 hrs by Hoechst staining.

What is called EC50 is the concentration at which the effect is half-maximal.

In the case of `CNc1nccc(-c2cccnc2Oc2ccc(NC(=O)c3cccc(Cl)c3)cc2C)n1` [3-Chloro-N-(3-methyl-4-(3-(2-(methylamino)pyrimidin-4-yl)-pyridin-2-yloxy)phenyl)benzamide], the EC50 is more than 1200 nM.

With `CNc1nccc(-c2cccnc2Oc2ccc(NC(=O)c3ccc(Cl)cc3)cc2C)n1` [4-Chloro-N-(3-methyl-4-(3-(2-(methylamino)pyrimidin-4-yl)-pyridin-2-yloxy)phenyl)benzamide], the EC50 is more than 1200 nM. Take `CNc1nccc(-c2cccnc2Oc2ccc(NC(=O)c3cc(F)ccc3Nc3ccccc3)cc2)n1` [5-Fluoro-N-(4-(3-(2-(methylamino)pyrimidin-4-yl)pyridin-2-yloxy)phenyl)-2-(phenylamino)benzamide]: the EC50 came to 20 nM. For `CNc1nccc(-c2cccnc2Oc2ccc(NC(=O)c3ccccc3Nc3ccccc3)cc2C)n1` [N-(3-Methyl-4-(3-(2-(methylamino)pyrimidin-4-yl)pyridin-2-yloxy)phenyl)-2-(phenylamino)benzamide], the EC50 came to 89 nM. For `CNc1nccc(-c2cccnc2Oc2ccc(Nc3nnc(-c4ccccc4)c4ccccc34)cc2)n1` [N-(4-(3-(2-(Methylamino)pyrimidin-4-yl)pyridin-2-yloxy)phenyl)-4-phenylphthalazin-1-amine] the value was 15 nM; for `CNc1nccc(-c2cccnc2Oc2ccc(NC(=O)c3cccc(C(F)(F)F)c3)cc2C)n1` [N-(3-Methyl-4-(3-(2-(methylamino)pyrimidin-4-yl)pyridin-2-yloxy)phenyl)-3-(trifluoromethyl)benzamide], more than 1200 nM; for `CNc1nccc(-c2cccnc2Oc2ccc(NC(=O)c3ccccc3Nc3ccccc3)c(C)c2)n1` [N-(2-Methyl-4-(3-(2-(methylamino)pyrimidin-4-yl)pyridin-2-yloxy)phenyl)-2-(phenylamino)benzamide], 1450 nM. For `CNc1nccc(-c2cccnc2Oc2ccc(NC(=O)c3cccc(Oc4ccccc4)c3)cc2C)n1` [N-(3-Methyl-4-(3-(2-(methylamino)pyrimidin-4-yl)pyridin-2-yloxy)phenyl)-3-phenoxybenzamide] the value was more than 1200 nM; for `CNc1nccc(-c2cccnc2Oc2ccc(Nc3nnc(-c4ccc(F)cc4)c4ccccc34)cc2)n1` [4-(4-Fluorophenyl)-N-(4-(3-(2-(methylamino)pyrimidin-4-yl)-pyridin-2-yloxy)phenyl)phthalazin-1-amine], 24 nM; for `CNc1nccc(-c2cccnc2Oc2ccc(NC(=O)c3ccccc3Oc3ccccc3)cc2C)n1` [N-(3-Methyl-4-(3-(2-(methylamino)pyrimidin-4-yl)pyridin-2-yloxy)phenyl)-2-phenoxybenzamide], more than 1200 nM. For `CNc1nccc(-c2cccnc2Oc2ccc(NC(=O)c3ccccc3Nc3ccccc3)cc2)n1` [N-(4-(3-(2-(Methylamino)pyrimidin-4-yl)pyridin-2-yloxy)phenyl)-2-(phenylamino)benzamide] the value was 15 nM; for `CNc1nccc(-c2cccnc2Oc2ccc(NC(=O)c3ccccc3Nc3ccc(F)cc3)cc2)n1` [2-(4-Fluorophenylamino)-N-(4-(3-(2-(methylamino)pyrimidin-4-yl)pyridin-2-yloxy)phenyl)benzamide], 28 nM.
